# “Also recorded” adds a separate entry of the source.
# Tests used:
# CTLL-2 cells = experiment: Potency assay based on STAT5 phosphorylation in CTLL-2 cells; format: cell-based, murine; details: Table 2B
# Experimental: In the phospho-STAT5 assay following receptor binding, downstream cell signaling can then activate Signal Transducer and Activator of Transcription 5 (STAT5) through phosphorylation to promote gene expression to induce cell proliferation. The activation of phosho-STAT5 is measured in CTLL-2 cells, a murine T lymphocyte cell line, using the phospho-STAT5/total STAT5 multiplexed assay (Meso Scale Discovery, MD) in response to sample and reference treatment for ˜10 minutes.
# One day prior to the assay, CTLL-2 cells were split into fresh growth medium [RPMI 1640 supplemented with 10% FBS, 10% T-cell culture supplement (catalog #354115, Corning, Inc., Tewksbury, MA), 2 mM L-glutamate, and 1 mM sodium pyruvate]. On the day of assay, cells were pre-incubated in assay medium (RPMI 1640 supplemented with 1% FBS, 2 mM L-glutamate, and 1 mM sodium pyruvate) for at least four hours, and then plated in assay medium in a 96-well plate at 50,000 cells/well. Dilutions of the test article were prepared in an appropriate buffer immediately prior to assay. Stimulation of CTLL-2 cells was initiated by the transfer of 25X test article solutions to triplicate wells containing CTLL-2 cells. Plates were incubated at 37° C., 5% CO2 for 10 minutes, and the reaction was stopped by cell lysis. Detection of phospho-STAT5 and total STAT5 protein levels in cell lysates was performed using the MSD Phospho (Tyr694)/Total STATa,b Whole Cell Lysate Kit (Meso Scale Discovery, MD).
# human PBMCs = experiment: HuPBMC-pStat5 assay (flow cytometry, lymphocyte subpopulations); format: cell-based
# Experimental: The potency of IL-15 or long acting IL-15 R agonists on various human lymphocyte subpopulations was determined by phospho-STAT5 (Y694) dose response assay. Frozen human PBMCs from multiple donors were supplied by AllCells. 1×10^6 cells/100ul were cultured in complete RPMI media for 2 hours and then incubated with the indicated concentrations (10,000ng/ml-0.001ng/ml serial dilutions) of IL-15 or conjugates for 20minutes at 37c. The cells were then fixed (using BD Cytofix) and permeabilized (using 100% pre-chilled methanol) and stained with antibodies for CD3, CD4, CD8, CD4-Tregs (CD4+CD25+Foxp3+), CD56 and phosphorylated STAT5 (Y694) before analysis by flow cytometry. Concentration-response relationships were used to calculate the EC50 values.
# Assessment of in-vitro activity of exemplary long-acting IL-15 receptor agonists (e.g., Conjugates 1, 3 and 5) was carried out by investigating signaling in NK cell subsets of human PBMCs as shown in FIGS. 10A (CD56bright cells) and 10B (CD56dim cells). STAT5 phosphorylation was evaluated as previously described for assessing IL-15 signaling activity of the long acting IL-15 receptor agonists.
# A second study was conducted to investigate/compare the pStat5 response of human PBMCs obtained from two donors (CD3, CD4, CD8, CD56 (bright and dim) and CD4-Tregs (CD25+Foxp3+)) to IL-15, Conjugate 1 and Conjugate 5. An […] dose response was examined using a 10-fold dilution with a dose range of 0.001-10000 ng/ml and a 20 min stimulation. Each of the test articles was diluted in IL-15 buffer+0.1% BSA.
# Assessment of in vitro activity of Conjugate 1 was carried out by investigating NK and CD8 JAK/STAT signaling after treatment of human PBMCs with IL-15 or Conjugate 1 at a dose range of 0.001-10000 ng/ml. STAT5 phosphorylation was assessed as previously described.
# [1] = Single dose PK study in mice (plasma concentration)
# Experimental: C57BL/6 mice (n=3/group) were administered a single intravenous dose of IL-15 (control) at 0.3 mg/kg) or of Conjugate 2 at a dose of 0.3 mg/kg. Following administration, blood samples were collected at various time points post administration (24 hours, 48 hours, 78 hours, 96 hours). […] Finally, at each time point, plasma concentration of drug was determined.
# For PK analysis, Conjugate 1 was administered as a single intravenous dose at 0.3 mg/kg in balb/c mice (n=3). Following administration, mice were humanely sacrificed and plasma was collected 24, 48, 72, 96, 120 and 144 hours post treatment. From a separate study, mice were administered a single intravenous dose of IL-15 (0.5 mg/kg). Samples from these mice were collected at the indicated time points within 6 hours of treatment.
# Balb/c mice (n=3/group) were administered a single intravenous dose of IL-15 (500 ug/kg) or of Conjugate 1 at 10, 30, 100, 300 and 1000 μg/kg. Blood samples were collected at the indicated time points post administration (conjugate 1:24, 48, 72, 96, 120, 144, 240 hours; IL-15 control: 0.03, 0.08, 0.25, 0.5, 1, 2, 4, 6, 8, hours) and plasma concentration of drug was determined.
# CD4, CD8, and NK cells = experiment: In vivo IL-15 signaling (STAT5 phosphorylation in lymphocytes) in mice
# Description: Conventional approaches, such as those involving radiolabeling a compound, administering the compound in vivo, and determining its clearance, can be used to assess whether a compound proposed to be a long-acting, IL-15 R agonist is “long-acting” (i.e., has a clearance that is longer than that of IL-15 administered in the same in vivo system). For the purposes herein, the long acting nature of a long-acting IL-15 R agonist may be, and is typically determined using flow cytometry to measure STAT5 phosphorylation in lymphocytes at various time points after administration of the agonist to be evaluated in mice. As a reference, the signal is lost by around 24 hours with IL-15, but is sustained for a period greater than that for a long-acting IL-15 agonist.
# Mice were dosed as described in Example 6 above to assess in-vivo signaling as assessed by degree of STAT5 phosphorylation. Degree of STAT5 phosphorylation in various lymphocytes (CD4, CD8, and NK cells) was assessed by staining whole blood for leukocyte surface markers and pSTAT5, followed by measurement by flow cytometry. Results are shown in FIGS. 8A and 8 B for IL-15 and for Conjugate 2, respectively.
# [PK methods previously described herein].
# STAT5 phosphorylation in CD4 T cells was determined by using a CD3+CD4+CD8-pSTAT5+ marker combination. FIG. 43 is a plot of pSTAT5 phosphorylation percent positivity within CD4 T cells over time (at 0.25, 1, 6, 24, 48, 72, 96 and 120 hours post administration) at a dose of 0.03 mg/kg (blue, solid squares) or 0.3 mg/kg (orange, solid circles). The vehicle over time (black) and pre-dose (open circles) levels are also shown.
substance,measurement,setting,value
"IL-15: recombinant human IL-15 from E. coli, SEQ ID NO: 1, non-glycosylated, 12.9 kDa; unconjugated comparator",EC50 (ng/mL) CTLL-2 pSTAT5,CTLL-2 cells,0.27 ng/mL
same,EC50 (ng/ml)-% pSTAT5 CD3 donor1,"human PBMCs; CD3 cells, donor1, 20 min stimulation",0.17 ng/ml
same,EC50 (ng/ml)-% pSTAT5 CD3 donor2,"human PBMCs; CD3 cells, donor2, 20 min stimulation",0.17 ng/ml
same,EC50 (ng/ml)-% pSTAT5 Treg donor1,"human PBMCs; CD4-Treg cells, donor1",0.08 ng/ml
same,EC50 (ng/ml)-% pSTAT5 Treg donor2,"human PBMCs; CD4-Treg cells, donor2",0.084 ng/ml
same,EC50 (ng/ml)-% pSTAT5 CD4 donor1,"human PBMCs; CD4 cells, donor1",0.177 ng/ml
same,EC50 (ng/ml)-% pSTAT5 CD4 donor2,"human PBMCs; CD4 cells, donor2",0.20 ng/ml
same,EC50 (ng/ml)-% pSTAT5 CD8 donor1,"human PBMCs; CD8 cells, donor1",0.17 ng/ml
same,EC50 (ng/ml)-% pSTAT5 CD8 donor2,"human PBMCs; CD8 cells, donor2",0.15 ng/ml
same,EC50 (ng/ml)-% pSTAT5 CD56bright donor1,"human PBMCs; CD56bright cells, donor1",0.11 ng/ml
same,EC50 (ng/ml)-% pSTAT5 CD56bright donor2,"human PBMCs; CD56bright cells, donor2",0.19 ng/ml
same,EC50 (ng/ml)-% pSTAT5 CD56dim donor1,"human PBMCs; CD56dim cells, donor1",0.26 ng/ml
same,EC50 (ng/ml)-% pSTAT5 CD56dim donor2,"human PBMCs; CD56dim cells, donor2",0.54 ng/ml
same,EC50 (ng/ml) pSTAT5 CD56bright NK,"human PBMCs; Table 3, CD56bright NK cells",0.4 ng/ml
same,EC50 (ng/ml)-% pSTAT5 CD3,"human PBMCs; Table 7 Summary Table, CD3",0.17 ng/ml
same,EC50 (ng/ml)-% pSTAT5 CD4,"human PBMCs; Table 7 Summary Table, CD4",0.177 ng/ml
same,EC50 (ng/ml)-% pSTAT5 CD8,"human PBMCs; Table 7 Summary Table, CD8",0.17 ng/ml
same,EC50 (ng/ml)-% pSTAT5 CD56bright,"human PBMCs; Table 7 Summary Table, CD56bright",0.11 ng/ml
same,EC50 (ng/ml)-% pSTAT5 CD56dim,"human PBMCs; Table 7 Summary Table, CD56dim",0.26 ng/ml
same,EC50 (ng/ml)-% pSTAT5 Treg,"human PBMCs; Table 7 Summary Table, Treg",0.08 ng/ml
same,EC50 (ng/ml)-MFI CD3 donor1,"human PBMCs; pSTAT5 MFI, CD3 cells, donor1",4.0 ng/mL
same,EC50 (ng/ml)-MFI CD3 donor2,"human PBMCs; pSTAT5 MFI, CD3 cells, donor2",5.22 ng/mL
same,EC50 (ng/ml)-MFI Treg donor1,"human PBMCs; pSTAT5 MFI, CD4-Treg cells, donor1",0.6 ng/mL
same,EC50 (ng/ml)-MFI Treg donor2,"human PBMCs; pSTAT5 MFI, CD4-Treg cells, donor2",0.71 ng/mL
same,EC50 (ng/ml)-MFI CD4 donor1,"human PBMCs; pSTAT5 MFI, CD4 cells, donor1",3.6 ng/mL
same,EC50 (ng/ml)-MFI CD4 donor2,"human PBMCs; pSTAT5 MFI, CD4 cells, donor2",5.8 ng/mL
same,EC50 (ng/ml)-MFI CD8 donor1,"human PBMCs; pSTAT5 MFI, CD8 cells, donor1",3.5 ng/mL
same,EC50 (ng/ml)-MFI CD8 donor2,"human PBMCs; pSTAT5 MFI, CD8 cells, donor2",5.5 ng/mL
same,EC50 (ng/ml)-MFI CD56bright donor1,"human PBMCs; pSTAT5 MFI, CD56bright cells, donor1",0.49 ng/mL
same,EC50 (ng/ml)-MFI CD56bright donor2,"human PBMCs; pSTAT5 MFI, CD56bright cells, donor2",0.96 ng/mL
same,EC50 (ng/ml)-MFI CD56dim donor1,"human PBMCs; pSTAT5 MFI, CD56dim cells, donor1",1.4 ng/mL
same,EC50 (ng/ml)-MFI CD56dim donor2,"human PBMCs; pSTAT5 MFI, CD56dim cells, donor2",3.7 ng/mL
same,half-life,"[1]; balb/c mice, single i.v., Conjugate 1 0.3 mg/kg, IL-15 0.5 mg/kg (Example 16)",less than 1 hours
same,plasma levels following administration,"[1]; mice, single i.v. dose",rapid drop in plasma levels; also recorded: rapidly cleared
same,duration of in-vivo STAT5 phosphorylation activity in NK and CD8 cells,"CD4, CD8, and NK cells; C57BL/6 mice, single i.v. 0.3 mg/kg",extremely short-lived
same,time by which the STAT5 phosphorylation signal in lymphocytes is lost,"CD4, CD8, and NK cells; mice, reference",around 24 hours
